Results on 26 molecules are retold here after patent US20240270751A1, “Pyrazolopyridinone Compounds” (BeiGene Ltd., priority 2021, published 2024).

Assay [1] has as its target DGKζ (Homo sapiens (Human), UniProt Q13574). As to the kind of experiment: Biochemical DGK IC50 assay, DGKζ ADP-Glo assay. The following applies: 0.5 nM enzyme, 140 μM ATP, 80 μM DAG; read-out: DGKζ ADP-Glo assay IC50. In short, it runs like this: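 Full-length human DGKζ, His-TEV tagged and purified from baculovirus-infected Sf9 cells, assayed by ADP-Glo with DAG/PS lipid micelle substrate prepared in 25 mM HEPES pH 7.0 with octyl glucoside. Final compound concentrations spanned 1.55–10000 nM or 23.3–150000 nM.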
In general terms: ADP-Glo turns the ADP formed in a reaction into a luminescent signal.

For assay [2], the target named is DGKα (Homo sapiens (Human), UniProt P23743). Nature of the assay: Biochemical DGK IC50 assay, DGKα ADP-Glo assay. Conditions: 7.5 nM enzyme, 140 μM ATP, 80 μM DAG. In short, it runs like this: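 ADP-Glo read-out with full-length DGKα on DAG/PS lipid micelle substrate in 25 mM HEPES pH 7.0, 0.5 mM EDTA, 160 mM octyl β-D-glucopyranoside. Compound final concentrations spanned 1.55˜10000 nM or 23.3˜150000 nM.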
DGKα, sequence (P23743 whole entry): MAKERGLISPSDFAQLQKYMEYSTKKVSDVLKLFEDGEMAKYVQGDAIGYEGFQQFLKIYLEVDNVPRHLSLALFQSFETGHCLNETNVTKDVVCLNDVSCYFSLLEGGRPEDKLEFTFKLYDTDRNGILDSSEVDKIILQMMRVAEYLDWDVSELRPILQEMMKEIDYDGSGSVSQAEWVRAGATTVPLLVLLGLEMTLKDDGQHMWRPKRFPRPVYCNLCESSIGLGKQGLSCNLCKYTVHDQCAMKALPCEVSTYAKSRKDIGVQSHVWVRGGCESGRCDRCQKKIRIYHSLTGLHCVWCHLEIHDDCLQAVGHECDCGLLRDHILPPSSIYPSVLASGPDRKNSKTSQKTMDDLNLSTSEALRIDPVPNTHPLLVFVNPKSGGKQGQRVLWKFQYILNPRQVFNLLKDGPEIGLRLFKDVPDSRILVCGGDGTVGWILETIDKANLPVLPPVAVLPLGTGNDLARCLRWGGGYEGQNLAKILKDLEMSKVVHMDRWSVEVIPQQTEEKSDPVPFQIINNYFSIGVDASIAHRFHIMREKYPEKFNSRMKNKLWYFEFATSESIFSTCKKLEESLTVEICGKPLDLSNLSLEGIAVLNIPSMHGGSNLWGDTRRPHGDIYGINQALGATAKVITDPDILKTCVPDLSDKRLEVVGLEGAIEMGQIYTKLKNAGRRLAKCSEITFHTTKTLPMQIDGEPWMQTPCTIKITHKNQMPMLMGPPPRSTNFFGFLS

A word on the pIC50: it is the IC50 on a negative log10 scale, so that one unit is a factor of ten.

The structures appear in SMILES notation. pIC50: −log10 of the molar value.

DGKζ, sequence (Q13574 other isoform, or with tags, fused parts or gaps): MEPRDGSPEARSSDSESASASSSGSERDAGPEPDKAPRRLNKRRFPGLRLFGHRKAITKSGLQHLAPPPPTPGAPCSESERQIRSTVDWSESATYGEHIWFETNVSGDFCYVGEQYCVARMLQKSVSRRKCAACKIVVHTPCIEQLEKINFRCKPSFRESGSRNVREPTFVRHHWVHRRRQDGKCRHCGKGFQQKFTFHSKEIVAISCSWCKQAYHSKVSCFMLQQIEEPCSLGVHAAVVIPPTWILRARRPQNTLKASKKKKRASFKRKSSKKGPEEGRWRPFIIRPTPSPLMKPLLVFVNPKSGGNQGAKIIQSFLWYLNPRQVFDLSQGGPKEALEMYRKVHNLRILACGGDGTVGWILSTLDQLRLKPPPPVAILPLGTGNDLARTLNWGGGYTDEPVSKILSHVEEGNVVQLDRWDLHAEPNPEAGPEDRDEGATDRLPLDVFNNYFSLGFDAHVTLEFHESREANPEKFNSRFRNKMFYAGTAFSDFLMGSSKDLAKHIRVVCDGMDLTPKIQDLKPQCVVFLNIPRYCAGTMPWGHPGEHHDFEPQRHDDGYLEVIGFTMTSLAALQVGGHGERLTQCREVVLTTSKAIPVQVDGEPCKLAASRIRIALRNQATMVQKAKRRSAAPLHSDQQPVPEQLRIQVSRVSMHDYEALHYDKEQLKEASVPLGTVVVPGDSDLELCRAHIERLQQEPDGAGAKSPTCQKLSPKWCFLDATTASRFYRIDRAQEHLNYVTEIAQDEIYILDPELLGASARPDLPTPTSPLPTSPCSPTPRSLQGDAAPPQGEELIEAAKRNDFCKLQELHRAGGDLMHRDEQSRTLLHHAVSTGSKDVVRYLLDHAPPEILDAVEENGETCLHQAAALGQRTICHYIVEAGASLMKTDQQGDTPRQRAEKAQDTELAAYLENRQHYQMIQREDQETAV

For the molecule `CC[C@H]1CN(C(C)c2ccc(F)cc2C(N)=O)[C@H](CC)CN1c1cc(=O)n(C)c2cn(CC#N)nc12` (stereo partly shown) [Compound A289], the pIC50 was 5.95 in assay [1] and under 5.00 in assay [2].
Consider `CC(c1ccc2nccnc2c1)N1C[C@H](CC#N)N(c2cc(=O)n(C)c3cn(CC#N)nc23)C[C@H]1C` (stereo partly drawn) [Compound A158, 2-((2S,5R)-1-(2-(cyanomethyl)-4-methyl-5-oxo-4,5-dihydro-2H-pyrazolo[4,3-b]pyridin-7-yl)-5-methyl-4-(1-(quinoxalin-6-yl)ethyl)piperazin-2-yl)acetonitrile], for which the pIC50 was 6.42 in assay [1] and under 5.00 in assay [2].
On to `CC[C@H]1CN(C(C)c2ccc3c(c2)NCCO3)[C@H](CC)CN1c1cc(=O)n(C)c2cn(CC#N)nc12` (stereo partly shown) [Compound A138], for which the results for the pIC50 in assay [1] and in assay [2] were 6.32 and 5.89, respectively.
Taken in the same sequence, the figures for `CC[C@H]1CN(C(C)c2ccc(F)cc2C#N)[C@H](CC)CN1c1cc(=O)n(C)c2cn(CC#N)nc12` (single isomer, unassigned) [Compound A224a] were 6.91 and 5.96.
Taken in the same sequence, the figures for `CC[C@H]1CN(C(C)c2ccc(F)cc2C(=O)OC)[C@H](CC)CN1c1cc(=O)n(C)c2cn(CC#N)nc12` (stereo partly shown) [Compound A290] were 6.37 and 4.25.
Taken in the same sequence, the figures for `CC[C@H]1CN(C(C)c2ccc(OC)cc2)[C@H](CC)CN1c1cc(=O)n(C)c2cn(CC#N)nc12` (stereo partly shown) [Compound A377] were 6.76 and 7.03.
For the molecule `Cc1cnc2ccc(N(C)C3CC(C)N(c4cc(=O)n(C)c5cn(CC#N)nc45)CC3C)cc2n1` (stereo not shown) [Compound A298, 2-(7-(2,5-dimethyl-4-(methyl(3-methylquinoxalin-6-yl)amino)piperidin-1-yl)-4-methyl-5-oxo-4,5-dihydro-2H-pyrazolo[4,3-b]pyridin-2-yl)acetonitrile], the pIC50 is 5.05 in assay [1] and under 3.82 in assay [2].
Taken in the same sequence, the figures for `CC[C@H]1CN(C(C)c2ccccc2OC)[C@H](CC)CN1c1cc(=O)n(C)c2cn(CC#N)nc12` (single isomer, unassigned) [Compound A106b] were 6.74 and under 5.00.
Turning to `CC[C@H]1CN(C(C)c2cc3cnccc3cn2)[C@H](CC)CN1c1cc(=O)n(C)c2cn(CC#N)nc12` (single isomer, unassigned) [Compound A368a], the pIC50 was 5.18 in assay [1] and 5.31 in assay [2].
Take `CC(c1ccc2nccnc2c1)N1C[C@H](C(F)F)N(c2cc(=O)n(C)c3cn(CC#N)nc23)C[C@H]1C` (stereo partly drawn) [Compound A261, 2-(7-((2R,5R)-2-(difluoromethyl)-5-methyl-4-(1-(quinoxalin-6-yl)ethyl)piperazin-1-yl)-4-methyl-5-oxo-4,5-dihydro-2H-pyrazolo[4,3-b]pyridin-2-yl)acetonitrile]: the pIC50 is 5.63 in assay [1] and under 5.00 in assay [2].
For `CC[C@@H]1CN(c2cc(=O)[nH]c3cn(CC#N)nc23)[C@@H](C)CN1C(C)c1ccc2nccnc2c1` (single isomer, unassigned) [Compound A177a], in that order: 7.15 and 5.09.
On to `CC(c1ccc2c(c1)OCCO2)N1C[C@H](C)N(c2cc(=O)n(C)c3cn(CC#N)nc23)C[C@H]1C` (single isomer, unassigned) [Compound A43a], for which the figures for the negative-log IC50 (pIC50) in assay [1] and in assay [2] were 5.29 and 4.42, respectively.
As for `CC(c1ccc2nccnc2c1)N1C[C@H](C)N(c2cc(=O)n(C)c3cn(CC4CC4)nc23)C[C@H]1C` (stereo partly shown) [Compound A10], the pIC50 in assay [1] was 4.74; in assay [2], 3.96.
Regarding `CC(c1ccc2cccnc2c1)N1C[C@H](C)N(c2cc(=O)n(C)c3cn(CC#N)nc23)C[C@H]1C` (stereo partly shown) [Compound A40], the pIC50 in assay [1] was 6.57; in assay [2] it was 5.64.
With `CC[C@@H]1CN(c2cc(=O)n(C)c3cn(CC#N)nc23)[C@@H](C)CN1C(C)c1ccc(F)cc1C(F)(F)F` (single isomer, unassigned) [Compound A218b], the negative-log IC50 (pIC50) in assay [1] was 5.40; in assay [2], under 5.00.
As for `CC(c1ccc2nccnc2c1)N1C[C@H](C)N(c2cc(=O)[nH]c3cn(CC#N)nc23)C[C@H]1C` (stereo partly drawn) [Compound A102, 2-(7-((2S,5R)-2,5-dimethyl-4-(1-(quinoxalin-6-yl)ethyl)piperazin-1-yl)-5-oxo-4,5-dihydro-2H-pyrazolo[4,3-b]pyridin-2-yl)acetonitrile], the pIC50 was 6.54 in assay [1] and under 5.00 in assay [2].
Consider `C[C@@H]1CN(c2cc(=O)n(C)c3c(Cl)n(CC#N)nc23)[C@@H](C)CN1[C@H](C)c1ccc2nccnc2c1` [Compound A263, 2-(3-chloro-7-((2S,5R)-2,5-dimethyl-4-((R)-1-(quinoxalin-6-yl)ethyl)piperazin-1-yl)-4-methyl-5-oxo-4,5-dihydro-2H-pyrazolo[4,3-b]pyridin-2-yl)acetonitrile, or 2-(3-chloro-7-((2S,5R)-2,5-dimethyl-4-((S)-1-(quinoxalin-6-yl)ethyl)piperazin-1-yl)-4-methyl-5-oxo-4,5-dihydro-2H-pyrazolo[4,3-b]pyridin-2-yl)acetonitrile], for which the pIC50 in assay [1] is 7.07; in assay [2] it was 4.38.
On to `CC[C@H]1CN(C(C)c2ncc(C)cc2F)[C@H](CC)CN1c1cc(=O)n(C)c2cn(CC#N)nc12` (stereo partly shown) [Compound A359], for which the pIC50 in assay [1] was 6.52; in assay [2], 6.93.
Taken in the same sequence, the figures for `COc1cnc2ccc(C(C)N3C[C@H](C)N(c4cc(=O)n(C)c5cn(CC#N)nc45)C[C@H]3C)cc2n1` (stereo partly drawn) [Compound A270, 2-(7-((2S,5R)-4-(1-(3-methoxyquinoxalin-6-yl)ethyl)-2,5-dimethylpiperazin-1-yl)-4-methyl-5-oxo-4,5-dihydro-2H-pyrazolo[4,3-b]pyridin-2-yl)acetonitrile] were 6.77 and 4.40.
For `CC[C@H]1CN(C(C)c2ccnn2CC(F)F)[C@H](CC)CN1c1cc(=O)n(C)c2c[nH]nc12` (stereo partly drawn) [Compound A228, 7-((2S,5R)-4-(1-(1-(2,2-difluoroethyl)-1H-pyrazol-5-yl)ethyl)-2,5-diethylpiperazin-1-yl)-4-methyl-2,4-dihydro-5H-pyrazolo[4,3-b]pyridin-5-one], in that order: 5.04 and under 5.00.
For `CC[C@H]1CN(C(C)c2cc3ccccc3c(C)n2)[C@H](CC)CN1c1cc(=O)n(C)c2cn(CC#N)nc12` (stereo partly shown) [Compound A367], in that order: 5.44 and 4.71.
Turning to `CC[C@@H]1CN(c2nc(=O)[nH]c3cn(CC#N)nc23)[C@@H](C)CN1C(C)c1ccc2nccnc2c1` (single isomer, unassigned) [Compound A183b], the pIC50 was 5.68 in assay [1] and under 5.00 in assay [2].
For `CC[C@H]1CN(C(C)c2ccc(C(F)(F)F)nc2)[C@H](CC)CN1c1cc(=O)n(C)c2cn(CC#N)nc12` (single isomer, unassigned) [Compound A135b], in that order: 5.89 and 6.37.
Taken in the same sequence, the figures for `CC[C@H]1CN(C(C)c2ccc3ncccc3c2)[C@H](CC)CN1c1cc(=O)n(C)c2cn(CC#N)nc12` (stereo partly shown) [Compound A60] were 7.77 and 6.90.
As to `CC(c1cnc2c(c1)OCCO2)N1C[C@H](C)N(c2cc(=O)n(C)c3cn(CC#N)nc23)C[C@H]1C` (stereo partly shown) [Compound A250], the pIC50 in assay [1] is 5.52; in assay [2], under 5.00.
Taken in the same sequence, the figures for `C[C@@H](c1ccc2nccnc2c1)N1CC2CCC1CN2c1cc(=O)n(C)c2cn(CC#N)nc12` (stereo partly shown) [Compound A125a] were under 5.00 and under 5.00.
